Results published in PMC11347135 (2024).

How the values were obtained:
[1] = tested on: d(CGTATACG)2 (DNA, duplex) CGTATACG; experiment: UV melting at 260 nm; details: 100 mM KCl, 5 mM MgCl2; 20 mM sodium cacodylate pH 7.3; 3 μM DNA, DNA:compound 1:4; 1 °C/min
[2] = tested on: d(CGTATACG)2 (DNA, duplex) CGTATACG; experiment: X-ray crystallography, 1.58 Å

For c1ccc2c(NCCCCCNc3c4ccccc4nc4ccccc34)c3ccccc3nc2c1, the Tm increase [1] was ~ 8.6 °C and the binding ([2]; 50 mM NaCl, 10 mM MgCl2, 25 mM bis-tris pH 7.0, 15% MPD, 20 °C, 0.3 mM DNA, DNA:DA5 1:1) was “yes”.

c1ccc2c(NCCCCNc3c4ccccc4nc4ccccc34)c3ccccc3nc2c1 was tested, and the Tm increase [1] was ~ 5.8 °C and the binding ([2]; 200 mM KCl, 6 mM MnCl2, 50 mM MES pH 6.3, 10% PEG400, 20 °C, 0.5 mM DNA, 1 mM DA4) was “yes”.
